Laboratory results published in article PMC10574761, “Novel 1,2,3-Triazole-Containing Quinoline–Benzimidazole Hybrids: Synthesis, Antiproliferative Activity, In Silico ADME Predictions, and Docking” (Molecules, 2023).

Columns and labels:
[1] = test system: MRC-5 (human fetal lung fibroblasts, non-tumor); test: MTT proliferation assay, MRC-5; type: cell-based; conditions: MRC5, 72 h treatment
Procedure: (§1) The effect of the new synthesized compounds was tested on five human tumor cell lines, HeLa (human cervical adenocarcinoma; from ATCC), CaCo-2 (human colorectal adenocarcinoma), HL-60 (acute promyelocytic leukemia), HuT78 (T-cell lymphoma) and THP-1 (acute monocytic leukemia), and on one non-tumor cell line, MRC-5 (human fetal lung fibroblasts). The MRC-5 cells were used between 24 and 26 passages. The cells were cultured in two different types of media: DMEM (Gibco, EU) and RPMI 1640 (Gibco, EU). Both media were supplemented with 2 mM glutamine, fetal bovine serum (10%; heat inactivated) and antibiotics (100 U penicillin and 0.1 mg streptomycin). RPMI 1640 was additionally supplemented with 10 mM HEPES and 1 mM sodium pyruvate. The cells growing in a monolayer were cultured in DMEM, while the cells growing in suspension were cultured in RPMI 1640. The cells were grown in humidified atmosphere under the conditions of 37 °C/5% CO2 gas in the CO2 incubator (IGO 150 CELLlife^TM, JOUAN, Thermo Fisher Scientific, Waltham, MA, USA).
(§2) Growth-inhibitory activity was assessed using a slightly modified procedure based on the National Cancer Institute’s protocol. Briefly, the cells were seeded in 96-well microtiter plates and incubated for 24 h. They were then treated with 10^−7 to 10^−4 M concentrations of the tested compounds for an additional 72 h. After the treatment period, the effects of the tested compounds on the growth rate of the cells were examined using the MTT assay. Absorbance was measured at 595 nm using a microplate reader. […] The selectivity index was calculated according to the following formula: SI=IC50 value of normal cell line/IC50 value of cancer cell line
(§3) The effect of each concentration was analyzed by plotting the logarithm of the concentration of the evaluated compound against the corresponding percentage inhibition value using least squares.

[2] = test system: CaCo-2 (human colorectal adenocarcinoma); test: MTT proliferation assay, CaCo-2; type: cell-based; conditions: 72 h treatment
Procedure: as §1, §2, §3

[3] = test system: HL-60 (acute promyelocytic leukemia); test: MTT proliferation assay, HL-60; type: cell-based; conditions: Homo sapiens, 72 h treatment
Procedure: as §1, §2, §3

Hut78 (T-cell lymphoma) = test: MTT proliferation assay, HuT78; type: cell-based, human; conditions: for IC50: Homo sapiens, HuT78, 72 h treatment, MTT
Procedure: as §1, §2, §3

[4] = test system: THP-1 (acute monocytic leukemia); test: MTT proliferation assay, THP-1; type: cell-based, human; conditions: for IC50: Homo sapiens, THP-1, 72 h treatment, MTT
Procedure: as §1, §2, §3

HuT78 cells = test: Cell cycle analysis by flow cytometry (PI staining); type: cell-based, human; conditions: 24 h, p < 0.05
Procedure: The cells were exposed to the compounds for 24 h, collected, washed with PBS, fixed with 70% ethanol and stored at −20 °C until analysis. On the day of analysis, the cell pellets were washed twice with PBS, resuspended in 1 mg/mL PI and 0.2 mg/mL RNase A and left in a dark/cold atmosphere for 30 min. The stained cells were analyzed using FACSCalibur (Becton Dickinson, Franklin Lakes, NJ, USA) flow cytometer. Tests were performed in duplicate and repeated twice. FlowJo software, version 10.2., was adapted for the analysis of DNA histograms.
[…] 13.5 (TIBCO Software Inc., Tulsa, USA) was used for the statistical analysis of the results. Student’s t test was used for data analysis. Differences were considered statistically significant at p < 0.05.

[5] = test system: HeLa (human cervical adenocarcinoma); test: MTT proliferation assay, HeLa; type: cell-based; conditions: 72 h treatment
Procedure: as §1, §2, §3

[6] = SI = IC50 of normal cell line (MRC-5) / IC50 of cancer cell line

IC50 [2] [µM]	IC50 [3] [µM]	IC50 (Hut78 (T-cell lymphoma)) [µM]	IC50 [4] [µM]	IC50 [5] [µM]	melting point [°C]	SMILES	IC50 [1] [µM]	increase of the proportion of cells in subG0/G1 phase compared to untreated cells (HuT78 cells; HuT-78, 5 µM) [%]	selectivity index (SI) for HuT78 cells (Hut78 (T-cell lymphoma); [6])	selectivity index (SI) for THP-1 cells [4, 6]	enrichment of the S fraction compared to control cells (HuT78 cells; HuT-78, 0.5 µM) [%]	increase in the aggregation of cells in the subG0/G1 phase (HuT78 cells; HuT-78, 5 µM)
> 100	> 100	10.9	> 100	> 100	209 to 211	CCCNC(=N)c1ccc2[nH]c(-c3ccc(OCc4cn(CCNc5ccnc6cc(Cl)ccc56)nn4)cc3)nc2c1.Cl.Cl.Cl [Compound 14e, 2-{4-[(1-{2-[(7-chloroquinolin-4-yl)amino]ethyl}-1H-1,2,3-triazol-4-yl)methoxy]phenyl}-N-propyl-1H-benzo[d]imidazol-5-carboximidamide trihydrochloride]	> 100	68				
> 100	1.24	4.91	2.06	> 100	100 to 102	Clc1ccc2[nH]c(-c3ccc(OCc4cn(CCNc5ccnc6cc(Cl)ccc56)nn4)c(Br)c3)nc2c1 [Compound 15b, N-[2-(4-{[2-bromo-4-(5-chloro-1H-benzo[d]imidazol-2-yl)phenoxy]methyl}-1H-1,2,3-triazol-1-yl)ethyl]-7-chloroquinolin-4-amine]	> 100					
8.3	1.02	0.2	0.18	7.53	85 to 86	COc1ccc2[nH]c(-c3ccc(OCc4cn(-c5ccnc6cc(Cl)ccc56)nn4)cc3)nc2c1 [Compound 9c, 7-chloro-4-(4-{[4-(5-methoxy-1H--benzo[d]imidazol-2-yl)phenoxy]methyl}-1H-1,2,3-triazol-1-yl)quinoline]	2.71		13.55	15	31	
> 100	> 100	> 100	> 100	> 100	200 to 202	Cl.Cl.Cl.N=C(N)c1ccc2[nH]c(-c3ccc(OCc4cn(-c5ccnc6cc(Cl)ccc56)nn4)c(Br)c3)nc2c1 [Compound 10d, 2-(3-bromo-4-{[1-(7-chloroquinolin-4-yl)-1H-1,2,3-triazol-4-yl]methoxy}phenyl)-1H-benzo[d]imidazol-5-carboximidamide trihydrochloride]	> 100					
> 100	93.2	9.68	> 100	> 100		CCCNC(=N)c1ccc2[nH]c(-c3ccc(OCc4cn(-c5ccnc6cc(Cl)ccc56)nn4)c(Br)c3)nc2c1.Cl.Cl.Cl [Compound 10e, 2-(3-bromo-4-{[1-(7-chloroquinolin-4-yl)-1H-1,2,3-triazol-4-yl]methoxy}phenyl)-N-propyl-1H-benzo[d]imidazol-5-carboximidamide trihydrochloride]	> 100					more than threefold
> 100	> 100	> 100	7.31	> 100	150 to 152	COc1ccc2[nH]c(-c3ccc(OCc4cn(CCNc5ccnc6cc(Cl)ccc56)nn4)cc3)nc2c1 [Compound 14c, 7-chloro-N-[2-(4-{[4-(5-methoxy-1H-benzo[d]imidazol-2-yl)phenoxy]methyl}-1H-1,2,3-triazol-1-yl)ethyl]quinolin-4-amine]	> 100					
> 100	> 100	100	> 100	> 100	143 to 145	Clc1ccc2c(-n3cc(COc4ccc(-c5nc6ccccc6[nH]5)cc4)nn3)ccnc2c1 [Compound 9a, 4-(4-{[4-(1H-benzo[d]imidazol-2-yl)phenoxy]methyl}-1H-1,2,3-triazol-1-yl)-7-chloroquinoline]	> 100					
> 100	2.62	3.98	1.65	> 100	92 to 94	COc1ccc2[nH]c(-c3ccc(OCc4cn(CCNc5ccnc6cc(Cl)ccc56)nn4)c(Br)c3)nc2c1 [Compound 15c, N-[2-(4-{[2-bromo-4-(5-methoxy-1H-benzo[d]imidazol-2-yl)phenoxy]methyl}-1H-1,2,3-triazol-1-yl)ethyl]-7-chloroquinolin-4-amine]	> 100					
> 100	> 100	7.83	> 100	> 100	169 to 171	CCCNC(=N)c1ccc2[nH]c(-c3ccc(OCc4cn(CCNc5ccnc6cc(Cl)ccc56)nn4)c(Br)c3)nc2c1.Cl.Cl.Cl [Compound 15e, 2-{3-bromo-4-[(1-{2-[(7-chloroquinolin-4-yl)amino]ethyl}-1H-1,2,3-triazol-4-yl)methoxy]phenyl}-N-propyl-1H-benzo[d]imidazol-5-carboximidamide trihydrochloride]	> 100	36				
> 100	> 100	> 100	> 100	> 100	213 to 215	Clc1ccc2[nH]c(-c3ccc(OCc4cn(CCNc5ccnc6cc(Cl)ccc56)nn4)cc3)nc2c1 [Compound 14b, 7-chloro-N-[2-(4-{[4-(5-chloro-1H-benzo[d]imidazol-2-yl)phenoxy]methyl}-1H-1,2,3-triazol-1-yl)ethyl]quinolin-4-amine]	> 100					
63.8	76.1	5.88	9.6	10	252 to 254	Clc1ccc2c(-n3cc(COc4ccc(-c5nc6ccccc6[nH]5)cc4Br)nn3)ccnc2c1 [Compound 10a, 4-(4-{[4-(1H-benzo[d]imidazol-2-yl)-2-bromophenoxy]methyl}-1H-1,2,3-triazol-1-yl)-7-chloroquinoline]	52.1					
9.92	18.2	3.89	6.23	9.86	170 to 172	COc1ccc2[nH]c(-c3ccc(OCc4cn(-c5ccnc6cc(Cl)ccc56)nn4)c(Br)c3)nc2c1 [Compound 10c, 4-(4-{[2-bromo-4-(5-methoxy-1H-benzo[d]imidazol-2-yl)phenoxy]methyl}-1H-1,2,3-triazol-1-yl)-7-chloroquinoline]	8.54					
> 100	> 100	10.5	> 100	> 100	227 to 229	Cl.Cl.Cl.N=C(N)c1ccc2[nH]c(-c3ccc(OCc4cn(CCNc5ccnc6cc(Cl)ccc56)nn4)cc3)nc2c1 [Compound 14d, 2-{4-[(1-{2-[(7-chloroquinolin-4-yl)amino]ethyl}-1H-1,2,3-triazol-4-yl)methoxy]phenyl}-1H-benzo[d]imidazol-5-carboximidamide trihydrochloride]	> 100					
